Measurements taken from the supplement of paper PMC10307832.

What was measured:
Test in all cases: relative viability (nuclei count vs DMSO), 5 days (fraction); higher = more cells survive
COR-L 105 = system: COR-L 105
Summary of the method: (§1)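 Relative viability divides the nuclei count in treated wells by that in vehicle wells. Lung cancer cell lines were seeded in 1536-well plates, dosed by pin tool the next day, and fixed and stained after 5 days in one step with final 0.05% Triton X-100, 1% formaldehyde and 1 ug/ml Hoechst. Dosing was a single drug or a fixed anchor-drug dose plus five library-drug doses (not always all listed) in √10 steps, and values are medians of duplicate plates imaged at 4×.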

COR-L23 = system: COR-L23
Summary of the method: as §1

HARA = system: HARA
Summary of the method: as §1

HCC-15 = system: HCC-15
Summary of the method: as §1

HOP-62 = system: HOP-62
Summary of the method: as §1

NCI-H1355 = system: NCI-H1355
Summary of the method: as §1

NCI-H1395 = system: NCI-H1395
Summary of the method: as §1

NCI-H1734 = system: NCI-H1734
Summary of the method: as §1

NCI-H1755 = system: NCI-H1755
Summary of the method: as §1

NCI-H1792 = system: NCI-H1792
Summary of the method: as §1

NCI-H1793 = system: NCI-H1793
Summary of the method: as §1

NCI-H1993 = system: NCI-H1993
Summary of the method: as §1

NCI-H2009 = system: NCI-H2009
Summary of the method: as §1

NCI-H2170 = system: NCI-H2170
Summary of the method: as §1

NCI-H2228 = system: NCI-H2228
Summary of the method: as §1

NCI-H2347 = system: NCI-H2347
Summary of the method: as §1

NCI-H358 = system: NCI-H358
Summary of the method: as §1

NCI-H647 = system: NCI-H647
Summary of the method: as §1

NCI-H838 = system: NCI-H838
Summary of the method: as §1

SK-MES-1 = system: SK-MES-1
Summary of the method: as §1

UMC-11 = system: UMC-11
Summary of the method: as §1

SMILES: Nc1ccn([C@@H]2O[C@H](CO)[C@@H](O)[C@@H]2O)c(=O)n1 [Cytarabine] + CS(=O)(=O)CCNCc1ccc(-c2ccc3ncnc(Nc4ccc(OCc5cccc(F)c5)c(Cl)c4)c3c2)o1 [Lapatinib] (partner 2 µM)
- relative viability (COR-L 105; first compound 0.005 µM): 0.299
- relative viability (COR-L 105; first compound 0.01581 µM): 0.328
- relative viability (COR-L 105; first compound 0.05 µM): 0.297
- relative viability (COR-L 105; first compound 0.1581 µM): 0.293
- relative viability (COR-L 105; first compound 0.5 µM): 0.252
- relative viability (COR-L23; first compound 0.005 µM): 0.892
- relative viability (COR-L23; first compound 0.01581 µM): 0.668
- relative viability (COR-L23; first compound 0.05 µM): 0.921
- relative viability (COR-L23; first compound 0.1581 µM): 0.235
- relative viability (COR-L23; first compound 0.5 µM): 0.138
- relative viability (HARA; first compound 0.005 µM): 0.692
- relative viability (HARA; first compound 0.01581 µM): 0.51
- relative viability (HARA; first compound 0.05 µM): 0.365
- relative viability (HARA; first compound 0.1581 µM): 0.189
- relative viability (HARA; first compound 0.5 µM): 0.132
- relative viability (HCC-15; first compound 0.005 µM): 0.785
- relative viability (HCC-15; first compound 0.01581 µM): 0.887
- relative viability (HCC-15; first compound 0.05 µM): 0.693
- relative viability (HCC-15; first compound 0.1581 µM): 0.615
- relative viability (HCC-15; first compound 0.5 µM): 0.639
- relative viability (HOP-62; first compound 0.005 µM): 0.825
- relative viability (HOP-62; first compound 0.01581 µM): 0.821
- relative viability (HOP-62; first compound 0.05 µM): 0.385
- relative viability (HOP-62; first compound 0.1581 µM): 0.134
- relative viability (HOP-62; first compound 0.5 µM): 0.0735
- relative viability (NCI-H1355; first compound 0.005 µM): 0.884
- relative viability (NCI-H1355; first compound 0.01581 µM): 0.968
- relative viability (NCI-H1355; first compound 0.05 µM): 0.811
- relative viability (NCI-H1355; first compound 0.1581 µM): 0.66
- relative viability (NCI-H1355; first compound 0.5 µM): 0.322
- relative viability (NCI-H1395; first compound 0.005 µM): 0.935
- relative viability (NCI-H1395; first compound 0.01581 µM): 0.749
- relative viability (NCI-H1395; first compound 0.05 µM): 0.581
- relative viability (NCI-H1395; first compound 0.1581 µM): 0.461
- relative viability (NCI-H1395; first compound 0.5 µM): 0.355
- relative viability (NCI-H1734; first compound 0.005 µM): 0.628
- relative viability (NCI-H1734; first compound 0.01581 µM): 0.341
- relative viability (NCI-H1734; first compound 0.05 µM): 0.481
- relative viability (NCI-H1734; first compound 0.1581 µM): 0.151
- relative viability (NCI-H1734; first compound 0.5 µM): 0.134
- relative viability (NCI-H1755; first compound 0.005 µM): 0.759
- relative viability (NCI-H1755; first compound 0.01581 µM): 0.973
- relative viability (NCI-H1755; first compound 0.05 µM): 0.8
- relative viability (NCI-H1755; first compound 0.1581 µM): 0.259
- relative viability (NCI-H1755; first compound 0.5 µM): 0.271
- relative viability (NCI-H1792; first compound 0.005 µM): 0.878
- relative viability (NCI-H1792; first compound 0.01581 µM): 0.874
- relative viability (NCI-H1792; first compound 0.05 µM): 0.366
- relative viability (NCI-H1792; first compound 0.1581 µM): 0.548
- relative viability (NCI-H1792; first compound 0.5 µM): 0.47
- relative viability (NCI-H1793; first compound 0.005 µM): 0.846
- relative viability (NCI-H1793; first compound 0.01581 µM): 0.478
- relative viability (NCI-H1793; first compound 0.05 µM): 0.656
- relative viability (NCI-H1793; first compound 0.1581 µM): 0.451
- relative viability (NCI-H1793; first compound 0.5 µM): 0.338
- relative viability (NCI-H1993; first compound 0.005 µM): 0.71
- relative viability (NCI-H1993; first compound 0.01581 µM): 0.929
- relative viability (NCI-H1993; first compound 0.05 µM): 0.682
- relative viability (NCI-H1993; first compound 0.1581 µM): 0.618
- relative viability (NCI-H1993; first compound 0.5 µM): 0.546
- relative viability (NCI-H2009; first compound 0.005 µM): 0.992
- relative viability (NCI-H2009; first compound 0.01581 µM): 0.878
- relative viability (NCI-H2009; first compound 0.05 µM): 0.444
- relative viability (NCI-H2009; first compound 0.1581 µM): 0.694
- relative viability (NCI-H2009; first compound 0.5 µM): 0.349
- relative viability (NCI-H2170; first compound 0.01581 µM): 0.233
- relative viability (NCI-H2170; first compound 0.05 µM): 0.231
- relative viability (NCI-H2170; first compound 0.1581 µM): 0.19
- relative viability (NCI-H2170; first compound 0.5 µM): 0.182
- relative viability (NCI-H2228; first compound 0.005 µM): 0.632
- relative viability (NCI-H2228; first compound 0.01581 µM): 0.562
- relative viability (NCI-H2228; first compound 0.05 µM): 0.315
- relative viability (NCI-H2228; first compound 0.1581 µM): 0.183
- relative viability (NCI-H2228; first compound 0.5 µM): 0.136
- relative viability (NCI-H2347; first compound 0.005 µM): 1.01
- relative viability (NCI-H2347; first compound 0.01581 µM): 0.942
- relative viability (NCI-H2347; first compound 0.05 µM): 0.764
- relative viability (NCI-H2347; first compound 0.1581 µM): 0.659
- relative viability (NCI-H2347; first compound 0.5 µM): 0.825
- relative viability (NCI-H358; first compound 0.005 µM): 0.471
- relative viability (NCI-H358; first compound 0.01581 µM): 0.332
- relative viability (NCI-H358; first compound 0.05 µM): 0.364
- relative viability (NCI-H358; first compound 0.1581 µM): 0.199
- relative viability (NCI-H358; first compound 0.5 µM): 0.176
- relative viability (NCI-H647; first compound 0.005 µM): 0.596
- relative viability (NCI-H647; first compound 0.01581 µM): 0.411
- relative viability (NCI-H647; first compound 0.05 µM): 0.27
- relative viability (NCI-H647; first compound 0.1581 µM): 0.128
- relative viability (NCI-H647; first compound 0.5 µM): 0.0883
- relative viability (NCI-H838; first compound 0.005 µM): 0.926
- relative viability (NCI-H838; first compound 0.01581 µM): 0.937
- relative viability (NCI-H838; first compound 0.05 µM): 0.767
- relative viability (NCI-H838; first compound 0.1581 µM): 0.288
- relative viability (NCI-H838; first compound 0.5 µM): 0.213
- relative viability (SK-MES-1; first compound 0.005 µM): 0.416
- relative viability (SK-MES-1; first compound 0.01581 µM): 0.396
- relative viability (SK-MES-1; first compound 0.05 µM): 0.328
- relative viability (SK-MES-1; first compound 0.1581 µM): 0.228
- relative viability (SK-MES-1; first compound 0.5 µM): 0.196
- relative viability (UMC-11; first compound 0.005 µM): 0.632
- relative viability (UMC-11; first compound 0.01581 µM): 0.462
- relative viability (UMC-11; first compound 0.05 µM): 0.434
- relative viability (UMC-11; first compound 0.1581 µM): 0.193
- relative viability (UMC-11; first compound 0.5 µM): 0.211
